Broadly, the EC50 is the midpoint of the concentration-response curve. Read a low EC50 as higher potency in that assay.

One molecule from patent US7880010B2, “Crystalline forms of a dimethylphenyl compound” (Theravance, Inc., priority 2006, dated 2011) can be followed below.

Type in all cases: cell-based
The target in one test is T1, hM1 receptor (Homo sapiens, UniProt P11229).
T1 construct: expressed in transfected cells; host or cells: CHO
T1 sequence (P11229 1-460): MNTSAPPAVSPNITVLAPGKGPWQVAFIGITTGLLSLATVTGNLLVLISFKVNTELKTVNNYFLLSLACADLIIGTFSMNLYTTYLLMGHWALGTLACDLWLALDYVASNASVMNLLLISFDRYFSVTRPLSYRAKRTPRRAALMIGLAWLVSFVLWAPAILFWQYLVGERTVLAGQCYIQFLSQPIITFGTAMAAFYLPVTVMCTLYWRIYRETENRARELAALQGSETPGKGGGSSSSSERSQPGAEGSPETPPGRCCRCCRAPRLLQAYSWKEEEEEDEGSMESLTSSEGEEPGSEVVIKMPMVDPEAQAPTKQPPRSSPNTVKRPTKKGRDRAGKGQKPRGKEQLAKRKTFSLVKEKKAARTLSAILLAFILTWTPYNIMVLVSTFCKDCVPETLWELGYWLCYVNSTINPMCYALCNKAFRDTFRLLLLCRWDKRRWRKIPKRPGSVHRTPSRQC
As to the kind of experiment: Blockade of agonist-mediated calcium release via FLIPR (Assay C). Particulars: CHO cells stably expressing hM1. As for the experimental part:
(§1) In this functional assay, the functional potency of a test compound as an antagonist of hM1, hM3 and […] receptors was determined by measuring the ability of the test compound to inhibit agonist-mediated increases in intracellular calcium.
(§2) CHO cells stably expressing the receptors were seeded into 96-well FLIPR plates the night before the assay was done. Seeded cells were washed twice with FLIPR buffer (10 mM HEPES, pH 7.4, 2 mM calcium chloride, 2.5 mM probenecid in Hank's Buffered Salt Solution (HBSS) without calcium and magnesium) using Cellwash (MTX Labsystems, Inc.) to remove growth media. After washing, each well contained 50 μL of FLIPR buffer. The cells were then incubated with 50 μL/well of 4 μM FLUO-4AM (a 2× solution was made) for 40 minutes at 37° C., 5% carbon dioxide. Following the dye incubation period, cells were washed two times with FLIPR buffer, leaving a final volume of 50 μL in each well.
(§3) The dose-dependent stimulation of intracellular Ca^2+ release for oxotremorine was determined so that the test compound could be measured against oxotremorine stimulation at an EC90 concentration. Cells were first incubated with compound dilution buffer for 20 minutes and then oxotremorine was added. […]
(§4) The parameters used for the FLIPR were: exposure length of 0.4 seconds, laser strength of 0.5 watts, excitation wavelength of 488 nm, and emission wavelength of 550 nm. Baseline was determined by measuring the change in fluorescence for 10 seconds prior to addition of oxotremorine. Following oxotremorine stimulation, the FLIPR continuously measured the change of fluorescence every 0.5 to 1 second for 1.5 minutes to capture the maximum fluorescence change.
(§5) The change of fluorescence was expressed as maximum fluorescence minus baseline fluorescence for each well. The raw data was analyzed against the logarithm of test compound concentration by nonlinear regression with GraphPad Prism (GraphPad Software, Inc., San Diego, Calif.) using the built-in model for sigmoidal dose-response. […]

The next test deals with cM5 receptor. The description is as above. Particulars: CHO cells stably expressing cM5. As to the method: as §1, §2, §3, §4, §5
The target in the next test is T2, hM3 receptor (Homo sapiens, UniProt P20309).
T2 construct: expressed in transfected cells; host or cells: CHO
T2 sequence (P20309 whole entry): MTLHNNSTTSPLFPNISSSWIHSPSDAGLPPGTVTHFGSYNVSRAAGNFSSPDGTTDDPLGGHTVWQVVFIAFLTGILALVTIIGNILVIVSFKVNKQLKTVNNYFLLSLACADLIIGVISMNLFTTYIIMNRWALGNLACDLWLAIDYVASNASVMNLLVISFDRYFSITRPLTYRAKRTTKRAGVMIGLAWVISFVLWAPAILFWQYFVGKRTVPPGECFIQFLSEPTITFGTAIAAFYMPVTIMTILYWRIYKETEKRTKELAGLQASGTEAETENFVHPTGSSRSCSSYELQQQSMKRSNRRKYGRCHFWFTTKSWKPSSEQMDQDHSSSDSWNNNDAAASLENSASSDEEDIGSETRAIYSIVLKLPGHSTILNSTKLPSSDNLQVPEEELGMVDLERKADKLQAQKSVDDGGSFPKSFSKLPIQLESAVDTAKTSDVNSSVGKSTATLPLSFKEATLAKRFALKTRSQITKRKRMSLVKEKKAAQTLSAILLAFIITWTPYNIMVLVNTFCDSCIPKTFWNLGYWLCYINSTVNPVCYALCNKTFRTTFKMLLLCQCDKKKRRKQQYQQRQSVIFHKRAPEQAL
The description is as above. Particulars: CHO cells stably expressing hM3. As for the experimental part:
as §1, §2, §3, §4, §5

Test [1] concerns the target T3, human β3 adrenergic receptor (Homo sapiens, UniProt P13945).
T3 construct: expressed in transfected cells; host or cells: CHO / CHO-K1
The experiment in a line: Whole-cell cAMP Flashplate assay, heterologously expressed receptor. Particulars: CHO-K1 cells. As for the experimental part: (§6) cAMP assays were performed in a radioimmunoassay format using the Flashplate Adenylyl Cyclase Activation Assay System with [^125I]-cAMP (NEN SMP004, PerkinElmer Life Sciences Inc., Boston, Mass.), according to the manufacturers instructions. For the determination of β1 and β2 […], […] HEK-293 cell lines stably expressing cloned human, β1 and β2 receptors were grown to near confluency in DMEM supplemented with 10% FBS and Geneticin (500 μg/mL). For the determination β3 receptor agonist potency (EC50), CHO-K1 cell line stably expressing cloned human or β3 adrenergic receptors was grown to near confluency in Hams F-12 media supplemented with 10% FBS and Geneticin (250 μg/mL). Cells were rinsed with PBS and detached in dPBS (Dulbecco's Phosphate Buffered Saline, without CaCl2 and MgCl2) containing 2 mM EDTA or Trypsin-EDTA solution (0.05% trypsin/0.53 mM EDTA). After counting cells in Coulter cell counter, cells were pelleted by centrifugation at 1,000 rpm and re-suspended in stimulation buffer containing IBMX (PerkinElmer Kit) pre-warmed to room temperature to a concentration of 1.6×10^6 to 2.8×10^6 cells/mL. About 40,000 to 80,000 cells per well were used in this assay. Test compounds (10 mM in DMSO) were diluted into PBS containing 0.1% BSA in Beckman Biomek-2000 and tested at 11 different concentrations ranging from 100 μM to 1 pM. Reactions were incubated for 10 min at 37° C. and stopped by adding 100 μL of cold detection buffer containing [^125I]-cAMP (NEN SMP004, PerkinElmer Life Sciences, Boston, Mass.). The amount of cAMP produced (pmol/well) was calculated based on the counts observed for the samples and cAMP standards as described in the manufacturer's user manual. Data were analyzed by nonlinear regression analysis with the GraphPad Prism Software package (GraphPad Software, Inc., San Diego, Calif.) with the sigmoidal equation. The Cheng-Prusoff equation (Cheng Y, and Prusoff W H., Biochemical Pharmacology, 1973, 22, 23, 3099-108) was used to calculate the […] values.

For test [2], the target named is T4, human β1 adrenergic receptor (Homo sapiens, UniProt P08588).
T4 construct: expressed in transfected cells; host or cells: HEK-293
T4 sequence (P08588 whole entry): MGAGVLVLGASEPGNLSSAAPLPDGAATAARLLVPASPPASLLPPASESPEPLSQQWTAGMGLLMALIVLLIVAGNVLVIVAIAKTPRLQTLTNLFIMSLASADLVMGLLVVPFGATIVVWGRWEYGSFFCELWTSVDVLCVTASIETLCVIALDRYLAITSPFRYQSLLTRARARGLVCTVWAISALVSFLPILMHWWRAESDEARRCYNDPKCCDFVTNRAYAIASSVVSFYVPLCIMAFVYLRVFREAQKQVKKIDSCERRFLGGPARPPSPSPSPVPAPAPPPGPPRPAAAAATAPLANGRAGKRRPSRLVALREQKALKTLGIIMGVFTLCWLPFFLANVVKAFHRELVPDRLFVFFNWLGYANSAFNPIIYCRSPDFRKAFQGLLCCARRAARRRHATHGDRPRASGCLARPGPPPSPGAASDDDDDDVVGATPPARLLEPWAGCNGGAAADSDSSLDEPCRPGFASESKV
The description is as above. Particulars: HEK-293 cells. As for the experimental part: as §6

Test [3] concerns the target T5, human β2 adrenergic receptor (Homo sapiens, UniProt P07550).
T5 construct: expressed in transfected cells; host or cells: HEK-293
The description is as above. The following applies: HEK-293 cells. As to the method: as §6

T5 sequence (P07550 whole entry): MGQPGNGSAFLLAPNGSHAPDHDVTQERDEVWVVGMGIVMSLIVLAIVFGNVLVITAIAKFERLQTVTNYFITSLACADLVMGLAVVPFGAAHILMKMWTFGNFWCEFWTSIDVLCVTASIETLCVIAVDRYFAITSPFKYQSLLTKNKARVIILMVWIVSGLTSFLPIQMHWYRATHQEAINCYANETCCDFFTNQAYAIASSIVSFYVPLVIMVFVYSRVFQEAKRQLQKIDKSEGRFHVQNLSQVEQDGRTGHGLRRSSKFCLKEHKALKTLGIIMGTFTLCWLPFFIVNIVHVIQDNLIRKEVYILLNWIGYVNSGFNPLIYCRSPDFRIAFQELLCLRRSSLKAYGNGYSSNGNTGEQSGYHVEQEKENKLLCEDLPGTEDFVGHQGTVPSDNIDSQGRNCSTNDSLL
T3 sequence (P13945 whole entry): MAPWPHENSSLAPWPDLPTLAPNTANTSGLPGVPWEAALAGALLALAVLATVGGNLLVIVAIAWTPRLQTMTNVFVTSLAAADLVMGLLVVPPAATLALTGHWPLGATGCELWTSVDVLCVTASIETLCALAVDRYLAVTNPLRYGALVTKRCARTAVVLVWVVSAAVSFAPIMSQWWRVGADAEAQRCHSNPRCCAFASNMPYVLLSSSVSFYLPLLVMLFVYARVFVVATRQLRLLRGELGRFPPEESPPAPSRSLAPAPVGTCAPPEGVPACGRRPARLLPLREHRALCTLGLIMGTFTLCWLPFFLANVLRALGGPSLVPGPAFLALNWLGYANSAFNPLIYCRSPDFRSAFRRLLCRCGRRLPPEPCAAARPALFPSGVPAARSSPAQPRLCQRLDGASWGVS

As to `Cc1cc(NC(=O)CCN2CCC(OC(=O)Nc3ccccc3-c3ccccc3)CC2)c(C)cc1CNC[C@H](O)c1ccc(O)c(NC=O)c1` [compound of formula I, biphenyl-2-ylcarbamic acid 1-[2-(4-{[(R)-2-(3-formylamino-4-hydroxyphenyl)-2-hydroxyethylamino]methyl}-2,5-dimethylphenylcarbamoyl)ethyl]-piperidin-4-yl ester], the “Kobs for blockade of agonist-mediated calcium release” value at hM1 receptor, in the test with cM5 receptor and on hM3 receptor was “less than 10 nM” throughout. Besides, the EC50 was above 700 nM in test [1], around 30 nM in test [2] and below 10 nM in test [3].
